Results published in patent US4167570A, “2-Methyl-6-alkyl-11-aminoalkyl-6,11-dihydro-5H-pyrido(2,3-B)(1,5)benzodia zepin-5-ones and salts thereof” (Boehringer Ingelheim GmbH, priority 1976, dated 1979).
Counter-ions that a name gives are not always drawn.

Columns and labels:
[1] = acute toxicity, LD50 in the mouse after intravenous administration; conditions: in vivo, i.v., NMRI-mice both sexes, deaths within 14 days, Litchfield and Wilcoxon
Protocol: (§1) The bronchosecretolytic activity and the intravenous acute toxicity of the compounds of this invention and of certain related 2-unsubstituted analogs disclosed in German Offenlegungsschrift No. 2,424,811 were ascertained by the standard test methods described below.
The acute toxicity was tested in NMRI-mice of both sexes having a body weight of 20 gm after intravenous administration. 0.1 ml of an aqueous 0.9% sodium chloride solution/10 gm of animal was used as a vehicle. The LD50 was calculated according to LITCHFIELD and WILCOXON from the percentage of the animals which died within 14 days after administration of various dosages.

[2] = tested on: bronchial secretion in guinea pigs; experiment: expectorant (bronchosecretolytic) activity, increase in bronchial secretion in anesthetized guinea pigs, peroral administration (Perry & Boyd, modified by Engelhorn & Puschmann); format: in vivo; conditions: two-hour period, vs untreated controls, male guinea pigs
Protocol: as §1
The tests for expectorant activity were carried out according to the method of PERRY, W. and BOYD, E.M.; J. Pharmacol. exp. Therap. 73, 65 (1941), as modified by ENGELHORN, R. and PUSCHMANN, S.; Arzneimittel Forsch. 21, 1045 (1971), on male guinea pigs with a body weight of 450 to 550 gm, which were anesthetized by i.p.-administration of a * 25% urethane solution (1,0 g/kg). The substances were administered perorally at the indicated dosages levels, each in 2 ml of distilled water, by means of an esophageal tube. 5 tests were carried out per dosage. The increase in bronchial secretion was calculated from the amount secreted within a two-hour period after administration of the test compound in comparison with the values obtained from untreated control animals, also within a two-hour period.

SMILES | LD50 at 336 h [1] [mg/kg] | Average percentage change in amount of bronchial secretion in guinea pigs ([2]; 0.005 μg/kg per os) | Average percentage change in amount of bronchial secretion in guinea pigs ([2]; 0.05 μg/kg per os) | Average percentage change in amount of bronchial secretion in guinea pigs ([2]; 0.5 μg/kg per os)
CCN(CC)CCCN1c2ccccc2N(C)C(=O)c2ccc(C)nc21.Cl [A, 11-(3-Diethylamino-propyl)-6,11-dihydro-2,6-dimethyl-5H-pyrido[2,3-b][1,5]benzodiazepin-5-one hydrochloride] | 15.4 | +44% | +100% | 
CCN(CC)CCCN1c2ccccc2N(C)C(=O)c2cccnc21.Cl [X, 11-(3-Diethylamino-propyl)-6,11-dihydro-6-methyl-5H-pyrido[2,3-b][1,5]benzodiazepin-5-one hydrochloride] |  | +0% | +13% | +80%
CCN(CCCN1c2ccccc2N(C)C(=O)c2cccnc21)C(C)C [Y, 11-[3-N-ethyl-N-isopropyl-amino)-propyl]-6,11-dihydro-6-methyl-5H-pyrido[2,3-b][1,5]benzodiazepin-5-one hydrochloride] | 30 |  | +10% | 
CC(C)N(CCCN1c2ccccc2N(C)C(=O)c2cccnc21)C(C)C.Cl [Z, 6,11-Dihydro-11-(3-diisopropylamino-propyl)-6-methyl-5H-pyrido[2,3-b][1,5]benzodiazepin-5-one hydrochloride] |  |  | +27% | 
CCN(CC)CCCN1c2cc(C)c(C)cc2N(C)C(=O)c2ccc(C)nc21.O=C(O)/C=C/C(=O)O [B, 11-(3-Diethylamino-propyl)-6,11-dihydro-2,6,8,9-tetramethyl-5H-pyrido[2,3-b][1,5]benzodiazepin-5-one hydrogen fumarate] | 9.9 | +44% | +83% | 
